Laboratory results taken from paper PMC4627284, “High-throughput simultaneous screen and counterscreen identifies homoharringtonine as synthetic lethal with von Hippel-Lindau loss in renal cell carcinoma” (Oncotarget, 2015).

Tests used:
[1] = system: VHL-deficient 786-O cells; experiment: High-throughput simultaneous screen and counterscreen, 1:1 mix of EV^GFP and VHL^mCh 786-O cells, fluorescence imaging; type: cell-based, human; conditions: 2 nM; equally affected VHL-deficient and VHL-reconstituted cells
From the text: To identify small molecule compounds synthetic lethal with VHL, we carried out an unbiased cell-based screen of a chemical library of ~12,800 compounds using 786-O cells, an extensively studied cell line derived from a VHL-deficient primary human ccRCC [26]. 786-O cells were stably transfected with either an empty vector (EV) control or reconstituted with an HA-tagged VHL cDNA. […] To distinguish between the two otherwise isogenic cell lines, we transduced the VHL-deficient 786-O cells with a histone H2B-GFP reporter and the VHL-reconstituted cells with an H2B-mCherry reporter. The histone proteins drive the fluorochrome to nuclei facilitating cell identification and segmentation algorithms (Figure 1A and 1B). […]
Figure 1 Screening strategy to identify compounds that are synthetic lethal with VHL A. Schematic diagram of a ~12,800 chemical library synthetic lethal screen. […] Fluorescence imaging (using the BD Pathway 855 imager) was used to identify compounds preferentially depleting VHL-deficient/GFP-positive cells after cells were segmented. B. Left panel: Representative image of fluorescence signal from Hoescht-labeled 786-O cells. Right panel: overlay of GFP fluorescence signal (green; from 786-O EV^GFP cells) and mCherry fluorescence nuclear signal (red; VHL^mCh cells). […] Toxicity was determined as ≤100 VHL^mCh cells per field. […]

[2] = system: VHL-mutant patient-derived ccRCC tumorgraft lines; experiment: ccRCC tumorgraft model, six VHL-mutant tumorgraft lines; type: in vivo, NOD/SCID mice; conditions: 0.5 mg/kg IP once every 48 hours, positive control
Description: We selected 6 independently-derived ccRCC tumorgraft lines that were confirmed to have VHL mutation. The mice (3-5 mice per tumorgraft line) were treated with either HHT (0.7 mg/kg), vehicle (as a negative control), or rapamycin (0.5 mg/kg; as a positive control). In total, 65 tumorgraft bearing mice were evaluated for these experiments in time courses lasting ~28 days, with tumor growth measured every 3 or 4 days.
Figure 3 HHT inhibits tumor growth in a ccRCC tumorgraft model A-F, Tumorgraft lines were treated with vehicle control, HHT (0.7 mg/kg), rapamycin (0.5 mg/kg), (or the combination, where indicated) and tumor growth was measured on the indicated days. Day 0 represents the first day of treatment.
Tumorgrafts were generated and propagated as described previously, with tumor samples implanted subcutaneously into the flank of the mouse for drug trials. Briefly, 4- to 8-week-old NOD/SCID mice were anesthetized with isoflurane and implanted subcutaneously with 64 mm^3 tumor fragments (cohorts 2-20). Once tumors reached an average of at least ~250 mm^3, drug treatment was begun. The mice were treated with vehicle, 0.7 mg/kg homoharringtonine (HHT) via gavage twice daily, or 0.5 mg/kg rapamycin given by IP injection once every 48 hours. Tumor size (volume) was measured twice weekly and was obtained by multiplying tumor length, width, and depth using calipers. To assess toxicity, mouse weight was monitored once weekly.
Sections from tumors were stained with hematoxylin and eosin (H&E) as described previously.

CO[C@H]1C[C@@H]2CC[C@@H](C)[C@@](O)(O2)C(=O)C(=O)N2CCCC[C@H]2C(=O)O[C@H]([C@H](C)C[C@@H]2CC[C@@H](O)[C@H](OC)C2)CC(=O)[C@H](C)/C=C(\C)[C@@H](O)[C@@H](OC)C(=O)[C@H](C)C[C@H](C)/C=C/C=C/C=C/1C [rapamycin, Rapamycin (sirolimus)]
effect on cell proliferation [1]: modestly reduced cell proliferation
response of tumorgraft lines [2]: Most lines responded
